Assay results taken from patent publication US20130029964A1, “[5, 6] HETEROCYCLIC COMPOUND” (DAIICHI SANKYO COMPANY, LIMITED, priority 2010, published 2013).
Structures can show the parent of a compound that is named as a salt.

System: ST2 cells, murine bone marrow-derived stromal cells
Assay: Osteoblast differentiation test (ALP activity)
Format: cell-based
Settings: Mus musculus, ST-2, 96 h, at 0.1 μg/mL, control group (0.1% DMSO) = 100%, four days of culturing, read-out: alkaline phosphatase activity
Procedure: ST2 cells, murine bone marrow-derived stromal cells, (obtained from RIKEN) were used.
In this test, α-MEM media (obtained from GIBCO BRL Cat. No. 10370-021) containing 10% (v/v) of inactivated calf serum (obtained from Hyclone Laboratories, Inc.) and 1% (v/v) of Penicillin-Streptomycin Liquid (obtained from GIBCO BRL Cat. No. 15140-122) (hereinbelow, abbreviated as 10%-FBS-αMEM) were used. In this test, all culturing was performed in a CO2 incubator (37° C., 95% humidity, 5% CO2).
The aforementioned cells were detached with 2 mL of a 0.25% trypsin solution (obtained from GIBCO BRL Cat. No. 15050-065) and dispersed in 10 mL of 10%-FBS-αMEM. Subsequently, the cells were collected by centrifugation (25° C., 800 rpm, five minutes). Then, a cell suspension containing 40000 of the cells/mL of 10%-FBS-αMEM was prepared. The cell suspension was then dispensed into 96-well plates (the product of Falcon), 100 μL per well, at a density of 4000 cells/well, followed by culturing for 24 hours. To the wells, except for the below-described well containing a control group, the compound was dispensed at final concentrations of 0.01, 0.03, 0.1, and 0.3 μg/ml. To the well of a control group, DMSO was dispensed at a final concentration of 0.1% (v/v). After four days of culturing, the activity of alkaline phosphatase (ALP) was measured in each group.
The measurement of ALP activity was performed as follows. That is, the medium in each well of the culture plates was completely removed. Each well was then washed by dispensing 100 μL of Dulbecco's phosphate buffer (obtained from GIBCO BRL Cat. No. 14190-144) and then removing it. A cell lysate solution containing 10 mM MgCl2 and 2% (v/v) TritonX-100 (Sigma) was prepared and dispensed at 50 μL/well, followed by stirring at room temperature for five minutes. An ALP substrate solution containing 50 mM diethanolamine (Wako Pure Chemical Industries, Ltd., Cat. No. 099-03112) and 20 mM p-nitrophenyl phosphate (Wako Pure Chemical Industries, Ltd., Cat. No. 147-02343) was prepared and dispensed at 50 μL/well, and the plates were left to stand at room temperature for 10 minutes. Subsequently, absorbance was measured by a microplate reader (Bio-Rad Laboratories, Inc.). Setting the measurement value of the control group of each plate at 100%, alkaline phosphatase activity (increase (%)) in the test compound-addition group was calculated, which was assessed as the degree of osteoblast differentiation.

Structure (SMILES)	activity at 0.1 µg/mL
OCCOCCNc1ccc(-n2cnc3ccccc32)cc1 [Example 3, 2-(2-{[4-(1H-Benzimidazol-1-yl)phenyl]amino}ethoxy)ethanol]	≥ 200%
OCCNc1ccc(-n2cnc3ccc(Cl)cc32)cc1 [Example 4, 2-{[4-(6-Chloro-1H-benzimidazol-1-yl)phenyl]amino}ethanol hydrochloride]	≥ 200%
COc1ccc2c(c1)ncn2-c1ccc(NCCO)cc1 [Example 5, 2-{[4-(5-Methoxy-1H-benzimidazol-1-yl)phenyl]amino}ethanol hydrochloride]	≥ 200%
COCCNc1ccc(-n2cnc3ccccc32)cc1 [Example 6]	≥ 200%
OCCOc1ccc(-c2cnc3ccc(F)cn23)cc1 [Example 7, 2-[4-(6-Fluoroimidazo[1,2-a]pyridin-3-yl)phenoxy]ethanol]	≥ 200%
OCCOc1ccc(-c2cnc3ccc(-c4cc[nH]c4)cn23)cc1 [Example 8, 2-{4-[6-(1H-Pyrrol-3-yl)imidazo[1,2-a]pyridin-3-yl]phenoxy}ethanol]	≥ 200%
OCCOc1ccc(-n2cnc3cc(-c4ccncc4)ccc32)cc1 [Example 9, 2-[4-(5-Pyridin-4-yl-1H-benzimidazol-1-yl)phenoxy]ethanol]	≥ 200%
CC(=O)N1CC=C(c2ccn3c(N4CCC(OCCO)CC4)cnc3c2)CC1 [Example 10, 2-({1-[7-(1-Acetyl-1,2,3,6-tetrahydropyridin-4-yl)imidazo[1,2-a]pyridin-3-yl]piperidin-4-yl}oxy)ethanol hydrochloride]	≥ 200%
OCCOc1ccc(-c2cnn3cc(-c4ccncc4)ccc23)cc1 [Example 11, 2-[4-(6-Pyridin-4-ylpyrazolo[1,5-a]pyridin-3-yl)phenoxy]ethanol]	≥ 200%
O=C(O)c1ccc(OCCOc2ccc(-n3cnc4ccccc43)cc2)cc1 [Example 12, 4-{2-[4-(1H-Benzimidazol-1-yl)phenoxy]ethoxy}benzoic acid hydrochloride]	≥ 200%
O=C(O)c1ccc(-c2ccc3c(c2)ncn3-c2ccc(OCCO)cc2)cc1 [Example 13, 4-{1-[4-(2-Hydroxyethoxy)phenyl]-1H-benzimidazol-5-yl}benzoic acid]	≥ 200%
CC(=O)Nc1ccc(-c2ccc3c(c2)ncn3-c2ccc(OCCO)cc2)cc1 [Example 14, N-(4-{1-[4-(2-Hydroxyethoxy)phenyl]-1H-benzimidazol-5-yl}phenyl)acetamide]	≥ 200%
NC(=O)c1ccc(-c2ccc3c(c2)ncn3-c2ccc(OCCO)cc2)cc1 [Example 15, 4-{1-[4-(2-Hydroxyethoxy)phenyl]-1H-benzimidazol-5-yl}benzamide dihydrochloride]	≥ 200%
O=C(c1ccc(-c2ccc3c(c2)ncn3-c2ccc(OCCO)cc2)cn1)N1CCOCC1 [Example 16, 2-(4-{5-[6-(Morpholin-4-ylcarbonyl)pyridin-3-yl]-1H-benzimidazol-1-yl}phenoxy)ethanol]	≥ 200%
O=C(c1ccc(-c2ccn3c(N4CCC(OCCOC5CCOCC5)CC4)cnc3c2)cc1)N1CCOCC1 [Example 17, 7-[4-(Morpholin-4-ylcarbonyl)phenyl]-3-{4-[2-(tetrahydro-2H-pyran-4-yloxy)ethoxy]piperidin-1-yl}imidazo[1,2-a]pyridine]	≥ 200%
NC(=O)c1ccc2ncc(-c3ccc(OCCOC4CCOCC4)cc3)n2c1 [Example 19, 3-{4-[2-(Tetrahydro-2H-pyran-4-yloxy)ethoxy]phenyl}imidazo[1,2-a]pyridine-6-carboxamide]	≥ 200%
COc1ccc2ncc(-c3ccc(OCCOC4CCOCC4)cc3)n2c1 [Example 20, 6-Methoxy-3-{4-[2-(tetrahydro-2H-pyran-4-yloxy)ethoxy]phenyl}imidazo[1,2-a]pyridine]	≥ 200%
C#Cc1ccc2ncc(-c3ccc(OCCOC4CCOCC4)cc3)n2c1 [Example 21, 6-Ethynyl-3-{4-[2-(tetrahydro-2H-pyran-4-yloxy)ethoxy]phenyl}imidazo[1,2-a]pyridine]	≥ 200%
N#Cc1ccc2ncn(-c3ccc(OCCOC4CCOCC4)cc3)c2c1 [Example 24, 1-{4-[2-(Tetrahydro-2H-pyran-4-yloxy)ethoxy]phenyl}-1H-benzimidazole-6-carbonitrile hydrochloride]	≥ 200%
FC(F)Oc1ccc2ncn(-c3ccc(OCCOC4CCOCC4)cc3)c2c1 [Example 25, 6-(Difluoromethoxy)-1-{4-[2-(tetrahydro-2H-pyran-4-yloxy)ethoxy]phenyl}-1H-benzimidazole hydrochloride]	≥ 200%
OCCNc1ccc(-n2cnc3cc(Cl)c(Cl)cc32)cc1 [Example 26]	≥ 200%
COc1ccc2c(c1)ncn2-c1ccc(OCCO)cc1 [Example 27]	≥ 200%
COc1cc2ncn(-c3ccc(NCCO)cc3)c2cc1OC [Example 28]	≥ 200%
CCOc1ccc2c(c1)ncn2-c1ccc(OCCO)cc1 [Example 30]	≥ 200%
OCCOc1ccc(-n2cnc3ccc(Cl)cc32)cc1 [Example 31]	≥ 200%
CCOc1ccn2c(-c3ccc(OCCO)cc3)cnc2c1 [Example 34]	≥ 200%
OCCOc1ccc(-n2cnc3cc4c(cc32)OCCO4)cc1 [Example 35]	≥ 200%

Structure (SMILES)	activity at 0.1 µg/mL
OCCOc1ccc(-n2cnc3cc(N4CCOCC4)ccc32)cc1 [Example 36]	≥ 200%
OCCOc1ccc(-n2cnc3cc(-c4cncnc4)ccc32)cc1 [Example 38]	≥ 200%
CC(=O)N1CCN(c2ccc3c(c2)ncn3-c2ccc(OCCO)cc2)CC1 [Example 40]	≥ 200%
OCCOc1ccc(-n2cnc3cc(-c4ccccc4)ccc32)cc1 [Example 41]	≥ 200%
OCCOc1ccc(-n2cnc3cc(-c4cccnc4)ccc32)cc1 [Example 42]	≥ 200%
Cc1cc(-c2ccc3c(c2)ncn3-c2ccc(OCCO)cc2)ccn1 [Example 43]	≥ 200%
c1cc(-c2ccc3c(c2)ncn3-c2ccc(OCCOC3CCOCC3)cc2)ccn1 [Example 44]	≥ 200%
CS(=O)(=O)N1CCC(OCCOc2ccc(-n3cnc4ccccc43)cc2)CC1 [Example 45]	≥ 200%
CC(=O)N1CCC(OCCOc2ccc(-n3cnc4ccccc43)cc2)CC1 [Example 46]	≥ 200%
OCCOc1ccc(-n2cnc3ccc(F)cc32)cc1 [Example 47]	≥ 200%
Fc1ccc2ncn(-c3ccc(OCCOC4CCOCC4)cc3)c2c1 [Example 48]	≥ 200%
c1cc(-n2cnc3cc4c(cc32)OCCO4)ccc1OCCOC1CCOCC1 [Example 49]	≥ 200%
N#Cc1ccc(-c2ccc3c(c2)ncn3-c2ccc(OCCO)cc2)cc1 [Example 51]	≥ 200%
NS(=O)(=O)c1ccc(-c2ccc3c(c2)ncn3-c2ccc(OCCO)cc2)cc1 [Example 52]	≥ 200%
CS(=O)(=O)Nc1ccc(-c2ccc3c(c2)ncn3-c2ccc(OCCO)cc2)cc1 [Example 53]	≥ 200%
OCCOc1ccc(-n2cnc3cc(-c4cn[nH]c4)ccc32)cc1 [Example 54]	≥ 200%
O=C(COCCOc1ccc(-n2cnc3ccccc32)cc1)N1CCOCC1 [Example 56]	≥ 200%
OCCOc1ccc(-n2cnc3cc(-c4cc[nH]c4)ccc32)cc1 [Example 57]	≥ 200%
CS(=O)(=O)N1CCN(c2ccc3c(c2)ncn3-c2ccc(OCCO)cc2)CC1 [Example 59]	≥ 200%
CC(=O)N1CC=C(c2ccc3c(c2)ncn3-c2ccc(OCCO)cc2)CC1 [Example 60]	≥ 200%
CS(=O)(=O)N1CC=C(c2ccc3c(c2)ncn3-c2ccc(OCCO)cc2)CC1 [Example 61]	≥ 200%
CC(=O)n1ccc(-c2ccc3c(c2)ncn3-c2ccc(OCCO)cc2)c1 [Example 62]	≥ 200%
Cn1cc(-c2ccc3c(c2)ncn3-c2ccc(OCCO)cc2)cn1 [Example 63]	≥ 200%
OCCOc1ccc(-n2cnc3cc(-c4nccs4)ccc32)cc1 [Example 64]	≥ 200%
Cn1cc(-c2ccn3c(-c4ccc(OCCO)cc4)cnc3c2)cn1 [Example 65]	≥ 200%
CC(=O)N1CC=C(c2ccn3c(-c4ccc(OCCO)cc4)cnc3c2)CC1 [Example 66]	≥ 200%
